# According to patent US4759929A, “Novel treatment” (Cabinet Harle & Phelip, priority 1987, dated 1988):
# Legend:
# [1] = test system: Friend viruses and the plasma variant of Chirigos virus; details: in vivo; cited from earlier work
# [2] = test system: mammalian cellular DNA polymerases; details: known; cited from earlier work
# pancreatic RNase = pancreatic RNase (Bos taurus, UniProt P61823); experiment: Inhibition of pancreatic RNase (unpublished results); assay type: biochemical
# E. Coli RNA polymerases = E. Coli RNA polymerases (Escherichia coli, UniProt P0A8T7+P0A8V2); details: known; cited from earlier work
# E. Coli DNA polymerases = details: known; cited from earlier work
# scrapie = details: mice infected with scrapie; cited from earlier work
# cell growth = experiment: Inhibition of cell growth; assay type: cell-based
# T4 + Lymphocytes = experiment: T4+ lymphocytes number in treated patients; assay type: in vivo, human; details: four patients; after therapy
# [3] = test system: natural killer (NK) and killer cells (ADCC) function; details: cited from earlier work
# encephalomyocarditis = details: mice; cited from earlier work
# mouse α DNA polymerase = mouse α DNA polymerase (Mus musculus, UniProt P33609); details: required doses much higher than those inhibiting reverse transcriptase; cited from earlier work
# [4] = Pharmacokinetic studies in patient, I.V bolus infusion; assay type: in vivo, human; details: patient 1; I.V bolus infusion (about two minutes)
# [5] = test system: MLV reverse transcriptase; details: previously described; cited from earlier work
# [6] = molecular target: SAIDS virus reverse transcriptase (Simian retrovirus SRV-1, UniProt P04025); experiment: Reverse transcriptase assay, SAIDS virus; assay type: biochemical, Simian AIDS (SAIDS) virus; details: for Percent inhibition / p. mole incorporated: SAIDS virus; for p. mole incorporated: control 0.43
# Protocol: Simian AIDS (SAIDS) virus producing cells were provided by Murray Gardner, M.D. and supernatants of cell cultures were concentrated using polyethylene glycol (PEG) 10 percent precipitation. The precipitate was purified on a 20 to 60 percent sucrose gradient (50,000 g, 2.5 hours). Reverse transcriptase assays (see legend Table I) were performed on each fraction from the collected gradient. Maximum RT activity was found at a density of 1.18.
# (§1) Assay mixtures are indicated in the legend of Table I. The reaction was stopped by treating the mixtures with sodium pyrophosphate and trichloracetic acid. The results are given as picomoles of tritiated deoxyribonucleotides monophosphate incorporated into DNA after 1 hour at 37° C.
# (§2) HPA 23 inhibition of reverse transcriptase of SAIDS virus and LAV.
# (§3) Reaction mixture (50 μl) contains: Tris 50 mM pH 7.9, 5 mM MgCl2,
# (§4) OD/ml Oligo dT 12-18, and 200 pM ^3 HTTP (25 Ci/mM).
# [7] = molecular target: T1, LAV purified reverse transcriptase (Human immunodeficiency virus type 1 group M subtype B, UniProt P03367); experiment: Lineweaver-Burk kinetics, varying poly A oligo dT12-18 template primer concentration; assay type: biochemical, Lymphadenopathy associated virus (LAV); details: for HPA23 inhibition: LAV purified RT, FIG. 1 legend
# T1 construct: made in house
# Protocol: The results of the Lineweaver-Burk plots of the effects of varying concentration of poly An oligo dT12-18 at two different HPA23 concentrations are summarized in FIG. 1. In the experimental conditions, kinetic enzymatic parameters are: KM=2.18 nM of polyA oligo dT, Vmax=0.02 pM of 3 HTMP incorporated sec^-1. […] The interaction of HPA23 with the template primer-enzyme complex should take place at the binding site of the template primer.
# Lineweaver-Burk representation of the influence of poly A oligo T12-18 template concentration on the inhibition by HPA23 of LAV purified reverse transcriptase
# A: picomoles of ^3 H TMP incorporated in five minutes at 37° C.
# B: template primer concentration (OD ml^-1)
# : control (no inhibition)
# : inhibition dose corresponds to 65 percent HPA23 inhibition (19 μg/ml)
# inhibition dose corresponds to 80 percent HPA23 inhibition (40 μg/ml)
# Each plot-point is the mean of three experiments.
# E. Coli RNase H = E. Coli RNase H (Escherichia coli, UniProt P0A7Y4); experiment: Inhibition of E. Coli RNase H (unpublished results); assay type: biochemical
# [8] = molecular target: T1, LAV purified reverse transcriptase; experiment: Reverse transcriptase assay, LAV purified RT; assay type: biochemical, Lymphadenopathy associated virus (LAV); details: for p. mole incorporated: control 0.11
# Protocol: LAV RT was purified. Briefly, 10^9 LAV infected cells were washed two times in PBS, resuspended in Tris 50 mM (pH 7.5) KCl 500 mM, ethylene diamine tetracetic acid (EDTA) 0.1 mM, dithiothreitol 1 mM and glycerol 10 percent, and frozen in liquid nitrogen. After incubation with Triton X100 0.01 percent at 37° C. (15 Min), cell homogenates were centrifuged at 100,000 g for one hour and the supernatant dialyzed six hours (KCl 100 mM). The dialyzate was chromatographed on a phosphocellulse column. RT and DNA polymerases were eluted from the column with a 0.1M to 1M KCl gradient.
# as §1, §2, §3, §4
# β DNA polymerase = β DNA polymerase (Mus musculus, UniProt Q8K409); details: cited from earlier work
# LAV = experiment: Isolation of LAV from peripheral blood T cell cultures and cocultures of treated patients (RT activity in supernatant)
# [9] = molecular target: T2, LAV reverse transcriptase (Human immunodeficiency virus type 1 group M subtype B, UniProt P03367); experiment: Reverse transcriptase assay, LAV virus (non purified RT); assay type: biochemical, Lymphadenopathy associated virus (LAV); details: for ID50: LAV virus (non purified RT), 1 hour at 37° C.; for Percent inhibition / p. mole incorporated: LAV virus; for p. mole incorporated: control 0.13
# T2 construct: made in house; host or cells: LAV virions, PEG concentrated and sucrose gradient purified
# Protocol: Lymphadenopathy associated virus (LAV) was purified. Briefly, after clarification, the virus was concentrated by PEG (10 percent), and then centrifuged for 1.5 hours at 55,000 g (IEC type SB 498 rotor) on a 10 to 60 percent sucrose gradient. Reverse transcriptase assays were performed on each fraction and the maximum RT activity was found at a density of 1.16 and corresponded to the purified virus fraction.
# as §1, §2, §3, §4
# pancreatic DNase = pancreatic DNase (Bos taurus, UniProt P00639); experiment: Inhibition of pancreatic DNase (unpublished results); assay type: biochemical
# AIDS or related syndrome = experiment: Clinical features after HPA23 treatment; assay type: in vivo, human
# [10] = test system: lymphatic choriomeningitis virus; details: adult mice acutely infected; cited from earlier work
# [11] = test system: spontaneous mammary tumors; details: C3 HBi mice; cited from earlier work
# Sequence of SAIDS virus reverse transcriptase (P04025 913-1497): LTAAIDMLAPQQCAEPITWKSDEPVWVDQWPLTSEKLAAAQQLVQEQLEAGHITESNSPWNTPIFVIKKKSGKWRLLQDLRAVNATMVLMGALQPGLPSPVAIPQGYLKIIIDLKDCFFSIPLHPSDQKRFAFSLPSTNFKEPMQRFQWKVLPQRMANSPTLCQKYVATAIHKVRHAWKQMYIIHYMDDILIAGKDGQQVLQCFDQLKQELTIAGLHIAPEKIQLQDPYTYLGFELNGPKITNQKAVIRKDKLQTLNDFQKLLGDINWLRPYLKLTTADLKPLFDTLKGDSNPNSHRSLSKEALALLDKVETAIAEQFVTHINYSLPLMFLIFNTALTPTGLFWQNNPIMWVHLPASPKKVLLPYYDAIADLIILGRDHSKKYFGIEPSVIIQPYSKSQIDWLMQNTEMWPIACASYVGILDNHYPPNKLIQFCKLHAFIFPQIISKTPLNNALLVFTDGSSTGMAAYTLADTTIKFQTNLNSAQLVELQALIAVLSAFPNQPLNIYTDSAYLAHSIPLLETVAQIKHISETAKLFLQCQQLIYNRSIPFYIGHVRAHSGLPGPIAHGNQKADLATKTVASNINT
# Sequence of pancreatic DNase (P00639 23-282): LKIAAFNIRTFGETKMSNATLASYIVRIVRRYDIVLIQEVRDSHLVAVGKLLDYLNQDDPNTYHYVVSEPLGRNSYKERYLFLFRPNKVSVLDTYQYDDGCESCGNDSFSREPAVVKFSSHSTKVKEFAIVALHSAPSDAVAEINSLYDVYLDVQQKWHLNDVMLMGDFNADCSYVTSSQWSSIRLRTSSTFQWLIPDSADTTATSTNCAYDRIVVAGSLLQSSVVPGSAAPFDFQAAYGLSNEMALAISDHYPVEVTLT
# Sequence of E. Coli RNA polymerases (P0A8V2 whole entry): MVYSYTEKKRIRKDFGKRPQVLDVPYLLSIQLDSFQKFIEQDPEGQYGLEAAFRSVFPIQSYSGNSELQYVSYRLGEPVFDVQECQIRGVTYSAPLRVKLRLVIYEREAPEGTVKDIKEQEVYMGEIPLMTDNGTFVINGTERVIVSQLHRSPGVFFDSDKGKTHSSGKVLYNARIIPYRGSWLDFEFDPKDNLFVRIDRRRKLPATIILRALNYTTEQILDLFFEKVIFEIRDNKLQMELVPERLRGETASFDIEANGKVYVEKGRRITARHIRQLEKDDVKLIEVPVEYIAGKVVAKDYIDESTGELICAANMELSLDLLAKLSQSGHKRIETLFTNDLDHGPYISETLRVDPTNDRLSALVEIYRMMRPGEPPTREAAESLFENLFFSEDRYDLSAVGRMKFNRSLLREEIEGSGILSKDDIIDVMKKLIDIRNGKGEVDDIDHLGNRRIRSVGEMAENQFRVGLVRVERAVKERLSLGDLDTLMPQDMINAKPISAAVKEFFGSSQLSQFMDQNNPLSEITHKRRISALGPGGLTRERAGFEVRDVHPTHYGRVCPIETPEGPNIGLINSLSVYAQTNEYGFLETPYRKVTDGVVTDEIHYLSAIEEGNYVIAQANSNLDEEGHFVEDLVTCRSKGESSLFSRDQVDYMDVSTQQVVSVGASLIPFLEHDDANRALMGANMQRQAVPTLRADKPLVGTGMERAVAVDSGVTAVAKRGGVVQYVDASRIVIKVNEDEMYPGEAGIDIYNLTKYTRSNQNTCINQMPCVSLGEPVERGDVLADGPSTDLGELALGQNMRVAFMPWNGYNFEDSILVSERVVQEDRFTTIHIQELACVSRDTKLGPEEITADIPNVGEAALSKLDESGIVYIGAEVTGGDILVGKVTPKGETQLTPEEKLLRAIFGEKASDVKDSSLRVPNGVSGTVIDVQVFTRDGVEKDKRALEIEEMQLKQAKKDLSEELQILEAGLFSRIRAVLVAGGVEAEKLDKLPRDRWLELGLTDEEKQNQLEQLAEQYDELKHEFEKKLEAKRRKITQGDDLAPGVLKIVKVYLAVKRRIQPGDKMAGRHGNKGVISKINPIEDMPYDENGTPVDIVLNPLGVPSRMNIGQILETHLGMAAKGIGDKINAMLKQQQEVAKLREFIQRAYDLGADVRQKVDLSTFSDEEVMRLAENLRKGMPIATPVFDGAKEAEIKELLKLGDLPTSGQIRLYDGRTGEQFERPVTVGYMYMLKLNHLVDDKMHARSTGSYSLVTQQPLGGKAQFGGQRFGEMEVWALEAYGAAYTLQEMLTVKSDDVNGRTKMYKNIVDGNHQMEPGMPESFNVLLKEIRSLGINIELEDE
# Sequence of E. Coli RNA polymerases (P0A8T7 whole entry): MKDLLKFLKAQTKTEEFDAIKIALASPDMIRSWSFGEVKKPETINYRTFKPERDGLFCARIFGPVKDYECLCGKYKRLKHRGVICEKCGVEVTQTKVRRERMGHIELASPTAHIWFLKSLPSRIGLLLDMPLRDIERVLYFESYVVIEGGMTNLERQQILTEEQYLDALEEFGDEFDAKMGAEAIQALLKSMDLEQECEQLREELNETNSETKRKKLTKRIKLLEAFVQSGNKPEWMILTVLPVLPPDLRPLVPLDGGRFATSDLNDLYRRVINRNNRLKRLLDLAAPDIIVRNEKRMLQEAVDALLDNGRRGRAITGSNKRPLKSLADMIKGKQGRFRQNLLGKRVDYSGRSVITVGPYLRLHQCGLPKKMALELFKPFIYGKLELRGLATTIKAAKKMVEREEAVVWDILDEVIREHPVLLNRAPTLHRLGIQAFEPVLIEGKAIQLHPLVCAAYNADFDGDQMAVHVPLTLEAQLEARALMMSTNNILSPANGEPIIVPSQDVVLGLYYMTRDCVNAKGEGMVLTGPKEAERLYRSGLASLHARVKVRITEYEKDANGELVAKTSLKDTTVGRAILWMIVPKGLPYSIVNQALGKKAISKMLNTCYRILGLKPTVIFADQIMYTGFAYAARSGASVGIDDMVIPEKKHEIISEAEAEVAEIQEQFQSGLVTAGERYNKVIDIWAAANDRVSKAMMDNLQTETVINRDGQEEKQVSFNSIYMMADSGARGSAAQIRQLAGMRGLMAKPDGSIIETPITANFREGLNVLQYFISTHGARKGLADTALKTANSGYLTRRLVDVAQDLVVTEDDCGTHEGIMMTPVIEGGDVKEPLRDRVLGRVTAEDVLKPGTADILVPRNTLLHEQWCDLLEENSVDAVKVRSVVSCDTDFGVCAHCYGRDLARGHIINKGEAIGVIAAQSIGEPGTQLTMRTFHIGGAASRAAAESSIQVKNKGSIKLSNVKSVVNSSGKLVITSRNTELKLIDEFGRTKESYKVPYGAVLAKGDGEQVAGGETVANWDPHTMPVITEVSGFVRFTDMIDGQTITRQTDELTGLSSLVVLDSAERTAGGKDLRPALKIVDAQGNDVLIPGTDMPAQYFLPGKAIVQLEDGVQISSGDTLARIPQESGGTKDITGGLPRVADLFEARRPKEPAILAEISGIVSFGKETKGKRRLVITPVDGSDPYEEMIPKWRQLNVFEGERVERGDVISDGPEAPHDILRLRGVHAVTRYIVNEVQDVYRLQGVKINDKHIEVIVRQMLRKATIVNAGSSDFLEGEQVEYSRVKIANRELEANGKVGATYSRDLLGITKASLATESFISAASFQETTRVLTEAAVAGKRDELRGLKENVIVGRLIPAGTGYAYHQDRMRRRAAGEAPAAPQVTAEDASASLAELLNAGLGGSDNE
# Sequence of E. Coli RNA polymerases (P0A7Z4 whole entry partner): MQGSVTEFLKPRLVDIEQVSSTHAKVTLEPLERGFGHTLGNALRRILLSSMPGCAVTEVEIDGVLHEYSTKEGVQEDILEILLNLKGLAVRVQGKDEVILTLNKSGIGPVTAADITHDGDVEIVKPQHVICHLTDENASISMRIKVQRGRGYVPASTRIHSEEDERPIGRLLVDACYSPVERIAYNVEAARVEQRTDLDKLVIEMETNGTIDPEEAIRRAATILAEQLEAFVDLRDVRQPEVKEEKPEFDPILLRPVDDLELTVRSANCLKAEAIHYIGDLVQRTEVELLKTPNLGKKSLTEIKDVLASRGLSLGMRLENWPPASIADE
# Sequence of E. Coli RNA polymerases (P0A800 whole entry partner): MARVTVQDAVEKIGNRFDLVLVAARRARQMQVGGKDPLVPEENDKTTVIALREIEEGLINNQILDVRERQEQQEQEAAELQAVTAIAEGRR
# Sequence of E. Coli RNase H (P0A7Y4 whole entry): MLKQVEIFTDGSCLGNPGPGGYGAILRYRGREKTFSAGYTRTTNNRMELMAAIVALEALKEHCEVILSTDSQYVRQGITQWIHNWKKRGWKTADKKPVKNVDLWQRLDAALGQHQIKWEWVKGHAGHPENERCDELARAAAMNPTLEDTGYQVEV
# Sequence of pancreatic RNase (P61823 27-150): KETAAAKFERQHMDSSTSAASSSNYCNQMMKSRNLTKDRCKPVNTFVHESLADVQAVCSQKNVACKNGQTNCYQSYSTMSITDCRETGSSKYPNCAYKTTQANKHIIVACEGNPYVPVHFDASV
substance,measurement,setting,value
Ammonium-9-antimonio-III-21-tungsto-VII-sodate [HPA 23],protection against leukemia,[1],protects
same,inhibition of mammalian cellular DNA polymerases,[2],strong inhibitor
same,inhibition of pancreatic RNase,pancreatic RNase,does not inhibit
same,inhibition of E. Coli RNA polymerases,E. Coli RNA polymerases,strong inhibitor
same,inhibition of E. Coli DNA polymerases,E. Coli DNA polymerases,strong inhibitor
same,disease / incubation period,scrapie,can prevent disease or prolong the incubation period
same,dose required to inhibit the cell growth relative to the one blocking RT activity,cell growth,twenty times higher
same,absolute numbers of T4 + cells and T4 /T8 ratio,T4 + Lymphocytes,did not change significantly
same,effect on NK and ADCC function,[3],stimulating agent
same,activity against lethal encephalomyocarditis infections,encephalomyocarditis,some activity
same,recovery of the platelet count to the pretreatment value,each adult patient,between 21st day and the 45th day after
same,platelet toxicity,four patients,some platelet toxicity in three out of four cases
same,renal toxicity,four patients,No new renal toxicity was observed
same,recovery of hepatic transaminases to the pretreatment range,"patients 2, 3 and 4",≤ 21 days
same,elevations of the hepatic transaminases,"patients 2, 3 and 4 during treatment",2 ×normal value
same,inhibition of mouse α DNA polymerase,mouse α DNA polymerase,inhibitor
same,half life,[4],< 20 min
same,inhibition of MLV reverse transcriptase,[5],competitive inhibitor
same,inhibition mechanism,"[6]; SAIDS (monkey) virus enzyme, kinetic studies",competitive inhibition
same,ID50,"[6]; SAIDS virus RT, 1 hour at 37° C.",1.1 µg/mL
same,Percent inhibition,[6]; inhibitor 0.5 μg/ml,21%
same,p. mole incorporated,[6]; inhibitor 0.5 μg/ml,0.34 p. mole
same,Percent inhibition,[6]; inhibitor 1 μg/ml,35%
same,p. mole incorporated,[6]; inhibitor 1 μg/ml,0.28 p. mole
same,Percent inhibition,[6]; inhibitor 2.5 μg/ml,80%
same,p. mole incorporated,[6]; inhibitor 2.5 μg/ml,0.09 p. mole
same,Percent inhibition,[6]; inhibitor 5 μg/ml,94.5%
same,p. mole incorporated,[6]; inhibitor 5 μg/ml,0.024 p. mole
same,Percent inhibition,[6]; inhibitor 10 μg/ml,99.5%
same,p. mole incorporated,[6]; inhibitor 10 μg/ml,0.0025 p. mole
same,Percent inhibition,[6]; inhibitor 25 μg/ml,100%
same,p. mole incorporated,[6]; inhibitor 25 μg/ml,0 p. mole
same,inhibition mechanism,"[7]; LAV RT, versus template primer poly A oligo dT12-18",competitive inhibition
same,HPA23 inhibition,[7]; 19 μg/ml,65%
same,HPA23 inhibition,[7]; 40 μg/ml,80%
same,inhibition of E. Coli RNase H,E. Coli RNase H,does not inhibit
same,ID50,[8]; 1 hour at 37° C.,11 µg/mL
same,Percent inhibition,[8]; inhibitor 0.5 μg/ml,4.5%
same,p. mole incorporated,[8]; inhibitor 0.5 μg/ml,0.105 p. mole
same,Percent inhibition,[8]; inhibitor 1 μg/ml,8.2%
same,p. mole incorporated,[8]; inhibitor 1 μg/ml,0.101 p. mole
same,Percent inhibition,[8]; inhibitor 5 μg/ml,33.6%
same,p. mole incorporated,[8]; inhibitor 5 μg/ml,0.073 p. mole
same,Percent inhibition,[8]; inhibitor 10 μg/ml,43.6%
same,p. mole incorporated,[8]; inhibitor 10 μg/ml,0.062 p. mole
same,Percent inhibition,[8]; inhibitor 20 μg/ml,61.8%
same,p. mole incorporated,[8]; inhibitor 20 μg/ml,0.042 p. mole
same,Percent inhibition,[8]; inhibitor 30 μg/ml,70.2%
same,p. mole incorporated,[8]; inhibitor 30 μg/ml,0.032 p. mole
same,Percent inhibition,[8]; inhibitor 60 μg/ml,94%
same,p. mole incorporated,[8]; inhibitor 60 μg/ml,0.007 p. mole
same,Percent inhibition,[8]; inhibitor 100 μg/ml,100%
same,p. mole incorporated,[8]; inhibitor 100 μg/ml,0 p. mole
same,effect on β DNA polymerase,β DNA polymerase,without any effect
same,LAV detection in T cell cultures,"LAV; patient 1, during each period of treatment, I.V bolus, 1 mg/kg to 3.3 mg/kg",LAV could no longer be detected
same,"LAV isolation, even after cocultivation","LAV; patients 1 and 2, one month after the end of the treatment",LAV was not isolated
same,LAV detection in T cell cocultures,"LAV; patients 2, 3 and 4, 30 days after the end of the treatment",LAV was again detected in the T cell cocultures in two of the three patients (3 and 4) at a very low level
same,LAV isolation from primary cultures and cocultures of patient T cells,"LAV; patients 2, 3 and 4, following two weeks treatment, 200 mg IV infusion per day during 15 days",no virus (LAV) was isolated
same,ID50,[9]; 60 min,30.5 µg/mL
same,ID50,"[9]; listed as HPA23, 60 min",30 µg/mL
same,Percent inhibition,[9]; inhibitor 10 μg/ml,2.4%
same,p. mole incorporated,[9]; inhibitor 10 μg/ml,0.127 p. mole
same,Percent inhibition,[9]; inhibitor 25 μg/ml,18.6%
same,p. mole incorporated,[9]; inhibitor 25 μg/ml,0.013 p. mole
same,Percent inhibition,[9]; inhibitor 50 μg/ml,84.4%
same,p. mole incorporated,[9]; inhibitor 50 μg/ml,0.098 p. mole
same,Percent inhibition,[9]; inhibitor 60 μg/ml,100%
same,p. mole incorporated,[9]; inhibitor 60 μg/ml,0 p. mole
same,inhibition of pancreatic DNase,pancreatic DNase,does not inhibit
same,Kaposi's sarcoma evolution,"AIDS or related syndrome; patient 3, 4 months outcome","stabilized their mucosal evolutive K.S., without regression"
same,opportunistic infections,"AIDS or related syndrome; patient one, one year after the end of HPA23 therapy",did not present anymore other opportunistic infections
same,mortality,[10],reduces the mortality
same,occurrence of spontaneous mammary tumors,[11],reduces the occurance of spontaneous mammary tumors
